These results are taken from ChEMBL document CHEMBL5465560, “Selectivity Literature for EUbOPEN Chemogenomic Library” (2024).

Assay [1] has as its target Phosphatidylinositol 4-phosphate 5-kinase type-1 gamma (Homo sapiens) (UniProt O60331). Put plainly: Selectivity interaction (Ambit KINOMEscan and KiNATiv profiling in Jurkat cells) EUB0000090b PIP5K1C. It counts as cell-based. As to conditions: at 1 µM.
Assay [2] concerns the target Wee1-like protein kinase (Homo sapiens) (UniProt P30291). As to conditions: at 10 µM.
Assay [3] relates to Epidermal growth factor receptor (Homo sapiens), P00533 [UNDEFINED MUTATION]. Put plainly: Selectivity interaction (KinomeScan (DiscoverX)) EUB0001079a EGFR. The note with it: at 1 µM.
Epidermal growth factor receptor (Homo sapiens), P00533 [UNDEFINED MUTATION], sequence (P00533 whole entry, looked up, change not shown): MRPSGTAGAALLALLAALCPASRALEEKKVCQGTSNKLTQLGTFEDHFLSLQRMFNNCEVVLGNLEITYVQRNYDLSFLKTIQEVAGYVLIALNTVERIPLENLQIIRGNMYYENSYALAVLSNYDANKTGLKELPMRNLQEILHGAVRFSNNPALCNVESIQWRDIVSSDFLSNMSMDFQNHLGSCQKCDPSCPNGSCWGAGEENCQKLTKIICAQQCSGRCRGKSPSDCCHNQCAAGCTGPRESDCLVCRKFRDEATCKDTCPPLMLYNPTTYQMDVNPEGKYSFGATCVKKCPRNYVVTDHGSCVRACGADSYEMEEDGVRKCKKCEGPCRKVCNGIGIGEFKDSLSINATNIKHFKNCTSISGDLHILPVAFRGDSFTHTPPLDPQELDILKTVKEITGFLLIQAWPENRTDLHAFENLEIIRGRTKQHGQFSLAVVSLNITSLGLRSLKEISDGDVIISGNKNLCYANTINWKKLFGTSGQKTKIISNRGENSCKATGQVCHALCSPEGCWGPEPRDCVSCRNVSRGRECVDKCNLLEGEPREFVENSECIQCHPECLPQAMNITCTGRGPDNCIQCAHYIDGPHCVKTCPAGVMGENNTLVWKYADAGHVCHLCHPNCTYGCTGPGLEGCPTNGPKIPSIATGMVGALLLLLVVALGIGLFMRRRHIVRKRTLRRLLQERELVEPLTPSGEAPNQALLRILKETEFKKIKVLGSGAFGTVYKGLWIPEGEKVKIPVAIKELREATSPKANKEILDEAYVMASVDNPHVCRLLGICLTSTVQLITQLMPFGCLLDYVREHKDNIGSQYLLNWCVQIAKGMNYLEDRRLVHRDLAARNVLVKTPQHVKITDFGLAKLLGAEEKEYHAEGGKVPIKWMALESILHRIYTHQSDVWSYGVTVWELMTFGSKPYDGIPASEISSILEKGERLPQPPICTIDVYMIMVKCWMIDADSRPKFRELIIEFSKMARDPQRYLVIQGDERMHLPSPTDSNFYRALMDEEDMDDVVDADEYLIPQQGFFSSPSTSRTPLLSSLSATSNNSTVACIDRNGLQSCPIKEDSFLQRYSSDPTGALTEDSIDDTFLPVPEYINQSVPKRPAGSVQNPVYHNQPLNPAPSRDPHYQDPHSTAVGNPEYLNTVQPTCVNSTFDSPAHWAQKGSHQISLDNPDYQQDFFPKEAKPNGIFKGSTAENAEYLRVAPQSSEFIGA
The target in assay [4] is Tyrosine-protein kinase Fyn (Homo sapiens) (UniProt P06241). Put plainly: Selectivity interaction (Millipore kinase profiler) EUB0000124b FYN. As to conditions: at 10 µM.
Tyrosine-protein kinase Fyn (Homo sapiens), sequence (P06241 2-537 limits assumed): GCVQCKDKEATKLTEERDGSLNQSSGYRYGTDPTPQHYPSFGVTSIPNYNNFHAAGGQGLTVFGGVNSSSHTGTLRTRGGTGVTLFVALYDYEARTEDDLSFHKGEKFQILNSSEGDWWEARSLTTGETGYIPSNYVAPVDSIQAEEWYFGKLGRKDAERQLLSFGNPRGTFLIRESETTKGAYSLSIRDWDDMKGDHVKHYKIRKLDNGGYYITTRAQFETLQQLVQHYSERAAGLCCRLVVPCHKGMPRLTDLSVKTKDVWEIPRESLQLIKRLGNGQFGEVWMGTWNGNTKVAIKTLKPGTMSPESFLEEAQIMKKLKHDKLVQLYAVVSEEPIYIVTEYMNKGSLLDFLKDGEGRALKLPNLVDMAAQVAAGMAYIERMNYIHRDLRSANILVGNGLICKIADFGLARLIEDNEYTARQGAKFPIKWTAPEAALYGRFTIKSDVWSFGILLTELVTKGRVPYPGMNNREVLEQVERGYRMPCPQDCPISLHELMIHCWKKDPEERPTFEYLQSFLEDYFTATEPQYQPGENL
The target of assay [5] is T1, Cytoplasmic tyrosine-protein kinase BMX (Homo sapiens) (UniProt P51813).
T1 sequence (whole entry): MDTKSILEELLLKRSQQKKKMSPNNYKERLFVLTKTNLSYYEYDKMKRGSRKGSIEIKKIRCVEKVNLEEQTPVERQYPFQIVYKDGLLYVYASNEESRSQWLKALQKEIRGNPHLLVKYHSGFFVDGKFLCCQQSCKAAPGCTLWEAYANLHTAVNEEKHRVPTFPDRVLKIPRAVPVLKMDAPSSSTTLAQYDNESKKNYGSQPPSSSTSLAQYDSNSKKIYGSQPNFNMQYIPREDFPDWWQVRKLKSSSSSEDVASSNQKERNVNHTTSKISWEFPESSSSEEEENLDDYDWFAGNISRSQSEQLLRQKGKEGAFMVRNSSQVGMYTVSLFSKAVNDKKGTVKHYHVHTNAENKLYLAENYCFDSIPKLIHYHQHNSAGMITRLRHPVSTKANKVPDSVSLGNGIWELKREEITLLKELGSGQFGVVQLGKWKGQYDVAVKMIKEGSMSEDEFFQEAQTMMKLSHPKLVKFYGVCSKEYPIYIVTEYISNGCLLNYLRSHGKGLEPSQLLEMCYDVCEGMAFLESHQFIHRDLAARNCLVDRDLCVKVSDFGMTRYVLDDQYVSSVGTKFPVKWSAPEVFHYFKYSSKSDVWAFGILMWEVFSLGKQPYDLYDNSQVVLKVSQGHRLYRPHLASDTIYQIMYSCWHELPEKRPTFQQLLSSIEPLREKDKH
Put plainly: Selectivity interaction (KinomeScan (DiscoverX)) EUB0000045b BMX.

Assay [6] has as its target T2, Serine/threonine-protein kinase BRSK1 (Homo sapiens) (UniProt Q8TDC3).
T2 sequence (whole entry): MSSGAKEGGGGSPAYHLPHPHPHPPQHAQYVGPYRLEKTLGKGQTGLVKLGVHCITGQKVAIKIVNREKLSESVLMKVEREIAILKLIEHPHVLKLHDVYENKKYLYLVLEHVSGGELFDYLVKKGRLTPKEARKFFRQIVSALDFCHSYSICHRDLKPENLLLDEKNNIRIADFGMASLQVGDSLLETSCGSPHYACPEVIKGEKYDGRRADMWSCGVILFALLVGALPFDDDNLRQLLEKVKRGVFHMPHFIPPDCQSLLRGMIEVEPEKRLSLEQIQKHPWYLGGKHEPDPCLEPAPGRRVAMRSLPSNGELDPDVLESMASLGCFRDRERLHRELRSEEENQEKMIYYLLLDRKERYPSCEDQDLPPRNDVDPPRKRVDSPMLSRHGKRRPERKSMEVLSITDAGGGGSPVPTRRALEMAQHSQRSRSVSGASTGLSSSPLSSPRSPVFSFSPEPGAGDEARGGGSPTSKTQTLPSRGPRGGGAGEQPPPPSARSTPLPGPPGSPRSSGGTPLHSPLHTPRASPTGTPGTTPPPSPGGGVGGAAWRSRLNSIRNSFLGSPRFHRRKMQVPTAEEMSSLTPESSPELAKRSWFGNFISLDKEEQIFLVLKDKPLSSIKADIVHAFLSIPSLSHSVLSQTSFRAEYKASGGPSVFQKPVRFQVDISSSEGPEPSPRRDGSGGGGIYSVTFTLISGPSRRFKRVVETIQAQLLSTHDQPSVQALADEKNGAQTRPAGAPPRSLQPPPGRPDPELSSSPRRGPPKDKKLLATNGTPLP
Put plainly: Selectivity interaction (KinomeScan (DiscoverX)) EUB0000045b BRSK1.

The target of assay [7] is SRSF protein kinase 2 (Homo sapiens) (UniProt P78362). Put plainly: Selectivity interaction (ActivX KiNativ screen (kinase selectivity in THP-1 cell lysates)) EUB0000639a SRPK2. Type of assay: subcellular. As to conditions: lysate.
SRSF protein kinase 2 (Homo sapiens), sequence (P78362 whole entry, looked up): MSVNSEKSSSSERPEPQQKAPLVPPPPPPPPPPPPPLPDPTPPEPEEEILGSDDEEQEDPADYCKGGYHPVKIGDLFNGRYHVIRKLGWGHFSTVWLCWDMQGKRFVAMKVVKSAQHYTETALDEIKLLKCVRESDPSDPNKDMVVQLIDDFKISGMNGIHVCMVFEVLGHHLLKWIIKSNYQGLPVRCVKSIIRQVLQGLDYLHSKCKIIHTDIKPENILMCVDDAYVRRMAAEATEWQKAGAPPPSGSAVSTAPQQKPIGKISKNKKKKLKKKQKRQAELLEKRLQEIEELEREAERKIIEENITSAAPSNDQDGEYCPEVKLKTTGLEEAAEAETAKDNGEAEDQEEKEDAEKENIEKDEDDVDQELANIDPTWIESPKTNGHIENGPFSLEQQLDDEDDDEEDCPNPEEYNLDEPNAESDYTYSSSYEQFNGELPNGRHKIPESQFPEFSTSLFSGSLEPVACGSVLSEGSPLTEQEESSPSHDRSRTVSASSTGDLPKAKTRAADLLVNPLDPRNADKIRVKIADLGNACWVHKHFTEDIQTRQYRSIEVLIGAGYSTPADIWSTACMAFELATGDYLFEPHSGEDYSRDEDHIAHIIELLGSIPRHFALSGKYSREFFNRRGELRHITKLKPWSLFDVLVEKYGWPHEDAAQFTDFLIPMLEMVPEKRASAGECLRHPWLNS
Assay [8] addresses Serine/threonine-protein kinase 25 (Homo sapiens) (UniProt O00506). Put plainly: Selectivity interaction (Kinase panel (Invitrogen)) EUB0000639a STK25. As to conditions: at 200 nM.
The nature of assay [9]: Selectivity interaction (ActivX KiNativ screen (kinase selectivity in THP-1 cell lysates)) EUB0000639a STLK6. The note with it: Selectivity number of targets 283, Source Knowledge https://pubmed.ncbi.nlm.nih.gov/28498658/.
The target in assay [10] is T3, cGMP-dependent protein kinase 1 (Homo sapiens) (UniProt Q13976).
T3 sequence (whole entry): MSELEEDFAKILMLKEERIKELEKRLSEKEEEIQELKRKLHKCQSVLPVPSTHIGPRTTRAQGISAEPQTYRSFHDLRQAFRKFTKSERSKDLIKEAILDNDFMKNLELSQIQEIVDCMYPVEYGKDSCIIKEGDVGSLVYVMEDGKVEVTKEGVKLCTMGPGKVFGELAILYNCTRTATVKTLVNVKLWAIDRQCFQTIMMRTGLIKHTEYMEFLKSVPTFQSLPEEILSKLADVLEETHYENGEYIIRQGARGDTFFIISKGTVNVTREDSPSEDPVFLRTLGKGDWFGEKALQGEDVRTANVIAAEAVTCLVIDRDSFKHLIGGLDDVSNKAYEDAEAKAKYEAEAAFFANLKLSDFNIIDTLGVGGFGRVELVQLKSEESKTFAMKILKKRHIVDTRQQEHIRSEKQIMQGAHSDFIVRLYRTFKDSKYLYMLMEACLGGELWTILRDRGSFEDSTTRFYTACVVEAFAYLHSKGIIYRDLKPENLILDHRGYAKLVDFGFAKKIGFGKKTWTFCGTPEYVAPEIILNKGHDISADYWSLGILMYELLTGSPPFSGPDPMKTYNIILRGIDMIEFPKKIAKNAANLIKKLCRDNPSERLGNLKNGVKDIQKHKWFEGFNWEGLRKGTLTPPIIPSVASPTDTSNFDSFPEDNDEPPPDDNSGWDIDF
Put plainly: Selectivity interaction (KinomeScan (DiscoverX)) EUB0000229b PRKG1. The note with it: at 10 µM.

Each structure is given as a SMILES string.

Serine/threonine-protein kinase 25 (Homo sapiens), sequence (O00506 whole entry, looked up): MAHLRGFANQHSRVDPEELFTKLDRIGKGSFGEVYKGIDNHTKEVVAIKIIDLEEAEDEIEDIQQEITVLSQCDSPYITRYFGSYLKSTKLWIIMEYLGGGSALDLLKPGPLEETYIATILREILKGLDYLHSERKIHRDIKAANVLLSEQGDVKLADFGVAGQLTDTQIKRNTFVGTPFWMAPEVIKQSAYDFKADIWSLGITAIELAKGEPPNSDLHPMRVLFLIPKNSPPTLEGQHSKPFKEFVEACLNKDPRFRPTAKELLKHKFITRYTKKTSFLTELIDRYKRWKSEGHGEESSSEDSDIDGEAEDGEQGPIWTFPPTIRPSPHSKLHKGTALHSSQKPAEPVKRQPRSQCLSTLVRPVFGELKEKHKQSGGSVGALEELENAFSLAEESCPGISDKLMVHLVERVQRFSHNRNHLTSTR
Wee1-like protein kinase (Homo sapiens), sequence (P30291 whole entry, looked up): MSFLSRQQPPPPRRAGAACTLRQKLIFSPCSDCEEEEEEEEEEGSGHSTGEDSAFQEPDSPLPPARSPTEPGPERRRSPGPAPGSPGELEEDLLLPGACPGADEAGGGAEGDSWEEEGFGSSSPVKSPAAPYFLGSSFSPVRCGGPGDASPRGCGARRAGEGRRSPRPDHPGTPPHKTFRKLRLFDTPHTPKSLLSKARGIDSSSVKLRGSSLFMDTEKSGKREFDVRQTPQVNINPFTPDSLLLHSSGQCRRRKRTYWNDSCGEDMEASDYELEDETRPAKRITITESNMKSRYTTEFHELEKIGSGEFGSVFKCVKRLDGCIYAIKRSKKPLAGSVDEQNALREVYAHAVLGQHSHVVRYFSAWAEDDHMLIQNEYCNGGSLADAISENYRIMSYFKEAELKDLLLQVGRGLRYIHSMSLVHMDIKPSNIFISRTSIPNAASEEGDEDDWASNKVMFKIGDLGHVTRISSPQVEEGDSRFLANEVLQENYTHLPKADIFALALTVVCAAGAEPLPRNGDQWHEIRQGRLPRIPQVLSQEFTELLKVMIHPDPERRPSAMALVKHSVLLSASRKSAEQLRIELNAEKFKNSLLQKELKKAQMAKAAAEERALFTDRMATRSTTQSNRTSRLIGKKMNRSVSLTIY
Phosphatidylinositol 4-phosphate 5-kinase type-1 gamma (Homo sapiens), sequence (O60331 whole entry): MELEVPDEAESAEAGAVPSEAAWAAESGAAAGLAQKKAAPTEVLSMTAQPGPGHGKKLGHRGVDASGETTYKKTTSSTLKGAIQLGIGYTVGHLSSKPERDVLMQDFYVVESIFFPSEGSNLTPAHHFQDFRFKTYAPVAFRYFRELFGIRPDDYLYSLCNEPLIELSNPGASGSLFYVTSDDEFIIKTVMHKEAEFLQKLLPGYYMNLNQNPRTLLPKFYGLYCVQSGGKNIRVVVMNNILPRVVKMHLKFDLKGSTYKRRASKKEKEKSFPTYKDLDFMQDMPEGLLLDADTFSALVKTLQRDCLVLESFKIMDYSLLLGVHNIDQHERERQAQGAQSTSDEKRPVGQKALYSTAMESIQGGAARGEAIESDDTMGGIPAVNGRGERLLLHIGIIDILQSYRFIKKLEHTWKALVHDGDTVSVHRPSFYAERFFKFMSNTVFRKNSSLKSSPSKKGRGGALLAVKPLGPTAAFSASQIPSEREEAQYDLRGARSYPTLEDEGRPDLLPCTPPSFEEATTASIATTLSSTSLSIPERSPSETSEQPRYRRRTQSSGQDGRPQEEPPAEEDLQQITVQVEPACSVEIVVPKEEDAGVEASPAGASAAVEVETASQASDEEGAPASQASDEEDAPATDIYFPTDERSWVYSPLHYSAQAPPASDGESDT

Take `CN(C)C/C=C/C(=O)Nc1ccc(C(=O)N2CCCC(Nc3ncc(Cl)c(-c4c[nH]c5ccccc45)n3)C2)cc1` (stereo not given): the % of control in assay [1] was 100%.

Take `CCN(CC)CCCCNc1ncc2cc(-c3cc(OC)cc(OC)c3)c(NC(=O)NC(C)(C)C)nc2n1`: the % of control in assay [2] amounted to 100%.

As to `Nc1cnc(N2CCc3cc(S(=O)(=O)Nc4c(F)cc(Cl)cc4F)cc(N4CCCC4=O)c32)nc1` [TP-020n], in [3], the % of control is 71%.

With `CC(=O)Nc1cccc(-n2c(=O)n(C3CC3)c(=O)c3c(Nc4ccc(I)cc4F)n(C)c(=O)c(C)c32)c1`, in [4], the % of control came out at 101%.

As for `C=CC(=O)Nc1cc(-n2c(=O)ccc3cnc4ccc(-c5ccc(NS(C)(=O)=O)cc5)cc4c32)ccc1C`, the % of control in assay [5] (at 1 µM) is 29%; in assay [5] (at 10 µM) it was 6%; in [6] (at 1 µM) it was 100%; in assay [6] (at 10 µM) it was 97%.

In the case of `CC[C@@H]1[C@H](F)C(=O)N[C@@H]1COc1nccc2cc(C(N)=O)c(OC)cc12` [ZIMLOVISERTIB], the % of inhibition in [7] (at 0.01 µM) was 6.9%; in assay [7] (at 0.04 µM), -23%; in assay [7] (at 0.2 µM) it was -5.5%; in assay [7] (at 1 µM), 11.7%; in assay [7] (at 5 µM) it was 19.9%; in assay [8] it was 7.57%. Moreover, the “% of inhibition” value in [9] (Selectivity number of off-targets 0, at 0.01 µM) was 4.1%; in [9] (Selectivity number of off-targets 0, at 0.04 µM), 23.1%; in assay [9] (Selectivity number of off-targets 0, at 0.2 µM), 11.5%; in assay [9] (Selectivity number of off-targets 1, at 1 µM) it was 7.9%; in [9] (Selectivity number of off-targets 5, at 5 µM), 11.7%.

Consider `COc1cc(N(C)c2ccnc3ccc(C(F)(F)F)cc23)cc(OC)c1OC`, for which the % binding in assay [10] was 76%.
